Biological target: T1, human sputum elastase (HS) (Homo sapiens, UniProt P08246)
T1 construct: purchased Sigma
T1 sequence (P08246 30-267): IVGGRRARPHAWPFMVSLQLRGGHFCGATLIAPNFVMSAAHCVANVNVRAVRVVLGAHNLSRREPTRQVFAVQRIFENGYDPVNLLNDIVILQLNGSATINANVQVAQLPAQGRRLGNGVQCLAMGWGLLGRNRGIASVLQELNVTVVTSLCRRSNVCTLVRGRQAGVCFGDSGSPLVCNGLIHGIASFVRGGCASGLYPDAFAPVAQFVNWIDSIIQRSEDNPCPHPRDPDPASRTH
Experiment: Specificity assay, human sputum elastase
Format: biochemical
Conditions: 2 hr pre-incubation
Method: The specificities of compounds of the present invention were determined against a variety of serine proteases: human sputum elastase (HS), porcine pancreatic elastase (PPE) and human pancreatic chymotrypsin and one cysteine protease: human liver cathepsin B. In all cases a 96-well plate format protocol using colorimetric p-nitroaniline (pNA) substrate specific for each enzyme was used as described previously (Patent WO 00/09543) with some modifications to the serine protease assays.
Each assay included a 2 hr enzyme-inhibitor pre-incubation at room temperature followed by addition of substrate and hydrolysis to ˜30% conversion as measured on a Spectramax Pro microplate reader. Compound concentrations varied from 100 to 0.4 μM depending on their potency. […]
The percentage of inhibition was calculated using the formula: [1−((UVinh−UVblank)/(UVctl−UVblank))]×100 […]

C=CC1C[C@]1(NC(=O)[C@@H]1C[C@@H](Oc2cc(-c3ccccc3)nc3cc(OC)ccc23)CN1C(=O)[C@@H](NC(=O)OC(C)(C)C)C(C)(C)C)C(=O)NS(=O)(=O)C1(C)CC1 (stereo in doubt) [Compound 1, (1-{4-(7-Methoxy-2-phenylquinolin-4-yloxy)-2-[1-(1-methylcyclopropanesulfonylaminocarbonyl)-2-vinylcyclopropylcarbamoyl]pyrrolidine-1-carbonyl}-2,2-dimethylpropyl)carbamic acid tert-butyl ester]
IC50: 43 µM
